SMILES strings stand for the structures. Where two headings read alike, the source gives them in different places. A value given as a limit tells only on which side of the number the result lay.

Data on 53 compounds can be found in US20230391714A1, “INHIBITORS OF THE INTERACTION BETWEEN TRIP8B AND HCN CHANNELS AND USES THEREOF FOR TREATING NEUROLOGICAL DISEASES AND DISORDERS” (Northwestern University, priority 2022, published 2023).

The target in this assay is TRIP8b-HCN1c40 (Homo sapiens (Human), UniProt Q8IYB4). The assay can be described thus: TRIP8b-HCN1c40 AlphaScreen assay. Type of assay: binding. How it is done:
AlphaScreen Assay. 20 nM ofGST-tagged HCNlc40 protein (corresponding to the C terminal 40 amino acids of HCN1) was incubated with 200 nM of His-tagged TRIP8b(241-602) and varying concentrations of the test compound as described in our prior report (Han et al., 2015). After a 3 h incubation, anti-GST AlphaScreen acceptor beads were added for 1.5 h followed by AlphaScreen nickel chelate donor beads for 1.5 h. AlphaScreen signal was quantified using a PerkinElmer (Waltham, MA) EnSpire multimode plate reader.

Setting [1] is: activity ranges, read-out: TRIP8b-HCN1c40 Alphascreen IC50 activity.
[2] abbreviates: read-out: TRIP8b-HCN1c40 Alphascreen IC50.

Sequence of TRIP8b-HCN1c40 (Q8IYB4 265-626): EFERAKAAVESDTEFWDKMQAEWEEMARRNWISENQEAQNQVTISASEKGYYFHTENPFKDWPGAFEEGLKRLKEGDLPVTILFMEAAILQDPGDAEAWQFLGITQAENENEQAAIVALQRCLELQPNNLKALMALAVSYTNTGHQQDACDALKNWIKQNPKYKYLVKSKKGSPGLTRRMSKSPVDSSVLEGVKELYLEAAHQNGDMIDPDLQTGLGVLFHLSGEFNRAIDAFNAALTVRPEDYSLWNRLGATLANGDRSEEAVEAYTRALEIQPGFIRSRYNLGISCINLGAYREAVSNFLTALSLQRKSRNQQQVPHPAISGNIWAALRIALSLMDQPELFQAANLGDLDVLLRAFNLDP

As to `CC(Oc1ccc(-c2cc(Cl)cc(Cl)c2)cc1CN1CCN(C)CC1)C(=O)NCc1ccc(Cl)cc1` (centres unmarked) [NUCC-0202028], the concentration for half-maximal inhibition (IC50) (usually the point on the concentration scale where inhibition reaches its midpoint) reads like this: under setting [1], less than 1 µM; under setting [2], 0.86 µM.

Consider `Cc1ccc(-c2ccc(OCC(=O)Nc3ccc(Cl)cc3)c(CN3CCC(N(C)C)CC3)c2)cc1` [NUCC-0201608], for which the IC50 is 5 to 10 µM under setting [1] and 7 µM under setting [2].

With `CN1CCN(Cc2cc(-c3ccc(Cl)c(Cl)c3)ccc2OCC(=O)NCc2ccc(Cl)cc2)CC1` [NUCC-0201708], the half-inhibitory concentration (IC50) under setting [2] was less than 0.74 µM.

For the compound `CC(Oc1ccc(-c2ccc(C(F)(F)F)cc2)cc1CN1CCN(C)CC1)C(=O)NCc1ccc(Cl)cc1` (centres unmarked) [NUCC-0202029], the IC50 is 2 to 5 µM under setting [1] and 4.5 µM under setting [2].

For `CN1CCN(Cc2cc(-c3ccc(Cl)c(Cl)c3)ccc2OCC(=O)N2Cc3ccc(Cl)cc3C2)CC1` [NUCC-0201993], the IC50 was 1 to 2 µM under setting [1] and 1.9 µM under setting [2].

As for `CN1CCN(Cc2cc(-c3cccc(Cl)c3)ccc2OCC(=O)Nc2ccc(Cl)c(Cl)c2)CC1` [NUCC-0201998], the IC50 reads like this: under setting [1], less than 1 µM; under setting [2], less than 0.74 µM.

In the case of `O=Cc1cc(-c2ccc(F)cc2)ccc1O` [NUCC-0201191], the half-inhibitory concentration (IC50) under setting [2] was 58 µM.

`CN1CCN(Cc2cc(-c3ccc(Cl)c(Cl)c3)ccc2OCC(=O)NCCc2ccc(C#N)cc2)CC1` [NUCC-0201994]: the IC50 reads like this: under setting [1], 2 to 5 µM; under setting [2], 3.4 µM.

For `CN1CCN(Cc2cc(-c3ccc(Cl)cc3)ccc2OCC(=O)NCc2ccc(Cl)cc2)CC1` [NUCC-0201972], the IC50 under setting [2] was found to be 5 µM.

For `COc1ccc(NC(=O)COc2ccc(-c3ccc(Cl)c(Cl)c3)cc2CN2CCN(C)CC2)cc1` [NUCC-0202019], the IC50 runs as follows: under setting [1], 1 to 2 µM; under setting [2], 1.3 µM.

Regarding `CSc1ccc(-c2ccc(OCC(=O)NCc3ccc(Cl)cc3)c(CN3CCN(C)CC3)c2)cc1` [NUCC-0201710], the IC50 was 2 to 5 µM under setting [1] and 2.9 µM under setting [2].

As to `Cc1ccc(-c2ccc(OCC(=O)NCc3ccc(F)cc3)c(CN3CCC(N(C)C)CC3)c2)cc1` [NUCC-0201609], the IC50 under setting [1] lay in the range of 10 to 20 µM and the IC50 under setting [2] worked out at 16 µM.

Consider `CC(C)(C)c1ccc(-c2ccc(OCC(=O)NCc3ccc(Cl)cc3)c(CN3CCNCC3)c2)cc1` [NUCC-0201615], for which the half-inhibitory concentration (IC50) is, setting by setting: under setting [1], 5 to 10 µM; under setting [2], 6.3 µM.

Take `CN1CCN(Cc2cc(-c3ccc(Cl)c(Cl)c3)ccc2OCC(=O)Nc2ccc3ncsc3c2)CC1` [NUCC-0202014]: the IC50 reads like this: under setting [1], less than 1 µM; under setting [2], 0.81 µM.

Turning to `CN1CCN(Cc2cc(-c3ccc(CO)cc3)ccc2OCC(=O)Nc2ccc(Cl)c(Cl)c2)CC1` [NUCC-0202024], the IC50 was 2 to 5 µM under setting [1] and 3.2 µM under setting [2].

As for `CC(Oc1ccc(-c2ccc(Cl)cc2)cc1CN1CCN(C)CC1)C(=O)NCc1ccc(Cl)cc1` (centres unmarked) [NUCC-0202025], the IC50 by setting is: under setting [1], 1 to 2 µM; under setting [2], 1.5 µM.

For `CN1CCN(Cc2cc(-c3cccnc3)ccc2OCC(=O)Nc2ccc(Cl)c(Cl)c2)CC1` [NUCC-0202005], the IC50 reads like this: under setting [1], 5 to 10 µM; under setting [2], 5.5 µM.

Turning to `CC(Oc1ccc(-c2ccc(Cl)c(Cl)c2)cc1CN1CCN(C)CC1)C(=O)NCc1ccc(Cl)cc1` (centres unmarked) [NUCC-0202027], the half-inhibitory concentration (IC50) runs as follows: under setting [1], less than 1 µM; under setting [2], 0.94 µM.

In the case of `CN1CCN(Cc2cc(-c3ccc(Cl)cc3)ccc2OCC(=O)NCc2ccc(Cl)cc2)CC1` [NUCC-0201712], the IC50 is 2 to 5 µM under setting [1] and 3 µM under setting [2].

On to `CC(Oc1ccc(-c2ccc(F)cc2)cc1CN1CCN(C)CC1)C(=O)NCc1ccc(Cl)cc1` (centres unmarked) [NUCC-0202032], for which the IC50 under setting [1] is 2 to 5 µM and the half-maximal inhibitory concentration (IC50) under setting [2] was determined as 3.2 µM.

Turning to `CN1CCN(Cc2cc(-c3ccc(Cl)c(Cl)c3)ccc2OCC(=O)NCc2cccc(Cl)c2)CC1` [NUCC-0201986], the IC50 reads like this: under setting [1], 1 to 2 µM; under setting [2], 1.1 µM.

In the case of `CC(C)c1ccc(-c2ccc(OCC(=O)NCc3ccc(Cl)cc3)c(CN3CCNCC3)c2)cc1` [NUCC-0201616], the IC50 runs as follows: under setting [1], 5 to 10 µM; under setting [2], 5.7 µM.

With `CN1CCN(Cc2cc(-c3ccc(Cl)c(Cl)c3)ccc2OCC(=O)NCCc2ccc(C(F)(F)F)cc2)CC1` [NUCC-0201995], the IC50 by setting is: under setting [1], less than 1 µM; under setting [2], less than 0.74 µM.

As for `Cc1ccc([C@@H](C)NC(=O)C(C)Oc2ccc(-c3ccc(Cl)c(Cl)c3)cc2CN2CCN(C)CC2)cc1` (some centres unmarked) [NUCC-0202047], the IC50 runs as follows: under setting [1], less than 1 µM; under setting [2], less than 0.74 µM.

With `Cc1ccc(C(C)NC(=O)C(C)Oc2ccc(-c3cc(Cl)cc(-c4cc(Cl)cc(Cl)c4)c3)cc2CN2CCN(C)CC2)cc1` (centres unmarked) [NUCC-0202050], the IC50 under setting [1] was less than 1 µM and the IC50 under setting [2] was less than 0.74 µM.

For the compound `CN1CCN(Cc2cc(-c3ccc(Cl)c(Cl)c3)ccc2OCC(=O)N2CCc3cc(Cl)c(Cl)cc32)CC1` [NUCC-0201991], the IC50 runs as follows: under setting [1], less than 1 µM; under setting [2], less than 0.74 µM.

`CC(Oc1ccc(-c2ccc(Cl)cc2Cl)cc1CN1CCN(C)CC1)C(=O)NCc1ccc(Cl)cc1` (centres unmarked) [NUCC-0202026]: the IC50 is, setting by setting: under setting [1], less than 1 µM; under setting [2], 0.91 µM.

Regarding `Cc1ccc(-c2ccc(OC(C)C(=O)N[C@H](C)c3ccc(C)cc3)c(CN3CCN(C)CC3)c2)cc1` (some centres unmarked) [NUCC-0202048], the IC50 is, setting by setting: under setting [1], 1 to 2 µM; under setting [2], 1.9 µM.

Take `CC(Oc1ccc(-c2ccc(O)cc2)cc1CN1CCN(C)CC1)C(=O)NCc1ccc(Cl)cc1` (centres unmarked) [NUCC-0202030]: the IC50 was 10 to 20 µM under setting [1] and 14 µM under setting [2].

Take `CN1CCN(Cc2cc(-c3ccc(Cl)c(Cl)c3)ccc2OCC(=O)NCc2ccc(C(F)(F)F)cc2)CC1` [NUCC-0201982]: the IC50 by setting is: under setting [1], 2 to 5 µM; under setting [2], 2.5 µM.

As for `COc1ccc([C@H](C)NC(=O)COc2ccc(-c3ccc(C)cc3)cc2CN2CCC(N(C)C)CC2)cc1` [NUCC-0201611], the IC50 under setting [2] is greater than 40 µM.

For the compound `CN1CCN(Cc2cc(Oc3ccc(F)cc3)ccc2OCC(=O)NCc2ccc(Cl)cc2)CC1` [NUCC-0201229], the half-maximal inhibitory concentration (IC50) under setting [1] lay in the range of 5 to 10 µM and the IC50 under setting [2] is 7.1 µM.

Turning to `CN1CCN(Cc2cc(-c3ccc(F)cc3)ccc2OCC(=O)N(C)Cc2ccccc2)CC1` [NUCC-0201102], the IC50 under setting [2] came out at 91 µM.

Turning to `C=Cc1ccccc1NC(=O)COc1ccc(-c2ccc(Cl)c(Cl)c2)cc1CN1CCN(C)CC1` [NUCC-0202015], the IC50 is 1 to 2 µM under setting [1] and 1.1 µM under setting [2].

Regarding `CN1CCN(Cc2cc(-c3ccc(Cl)c(Cl)c3)ccc2OCC(=O)N2CCc3ccccc3C2)CC1` [NUCC-0201990], the IC50 under setting [1] is less than 1 µM and the IC50 under setting [2] is less than 0.74 µM.

Take `CN1CCN(Cc2cc(-c3ccc(Cl)cc3)ccc2OCC(=O)Nc2ccc(Cl)c(Cl)c2)CC1` [NUCC-0201999]: the IC50 is less than 1 µM under setting [1] and less than 0.74 µM under setting [2].

In the case of `Cc1cccc(-c2ccc(OCC(=O)Nc3cccc(S(C)(=O)=O)c3)c(CN3CC[C@H](N)C3)c2)c1` [NUCC-0201622], the IC50 by setting is: under setting [1], 10 to 20 µM; under setting [2], 19 µM.

On to `CN1CCN(Cc2cc(-c3ccc(C(F)(F)F)cc3)ccc2OCC(=O)NCc2ccc(Cl)cc2)CC1` [NUCC-0201711], for which the concentration for half-maximal inhibition (IC50) is, setting by setting: under setting [1], 2 to 5 µM; under setting [2], 3.9 µM.

Regarding `CC(Oc1ccc(-c2ccc([N+](=O)[O-])cc2)cc1CN1CCN(C)CC1)C(=O)NCc1ccc(Cl)cc1` (centres unmarked) [NUCC-0202034], the half-inhibitory concentration (IC50) was 2 to 5 µM under setting [1] and 2.7 µM under setting [2].

As to `CN1CCN(Cc2cc(-c3ccc(Cl)c(Cl)c3)ccc2OCC(=O)NCc2ccccc2)CC1` [NUCC-0201987], the IC50 is, setting by setting: under setting [1], 2 to 5 µM; under setting [2], 2.5 µM.

Take `Cc1cccc(-c2ccc(OCC(=O)Nc3ccc(Cl)c(Cl)c3)c(CN3CC[C@H](N)C3)c2)c1` [NUCC-0201621]: the IC50 is, setting by setting: under setting [1], 1 to 2 µM; under setting [2], 1.3 µM.

With `CN1CCN(Cc2cc(-c3ccc(Cl)c(Cl)c3)ccc2OCC(=O)NCc2ccc(C#N)cc2)CC1` [NUCC-0201984], the IC50 under setting [2] worked out at 5.3 µM.

Consider `COc1ccc(CNC(=O)COc2ccc(-c3ccc(C)cc3)cc2CN2CCCN(C)CC2)c(OC)c1` [NUCC-0201599], for which the IC50 reads like this: under setting [1], 10 to 20 µM; under setting [2], 15 µM.

Regarding `Cc1ccc(-c2ccc(OCC(=O)Nc3ccc4c(c3)OCO4)c(CN3CCCN(C)CC3)c2)cc1` [NUCC-0201600], the IC50 is 5 to 10 µM under setting [1] and 9.2 µM under setting [2].

Take `CN1CCN(Cc2cc(-c3cc(C(F)(F)F)cnc3Cl)ccc2OCC(=O)Nc2ccc(Cl)c(Cl)c2)CC1` [NUCC-0202007]: the IC50 under setting [1] was 2 to 5 µM and the IC50 under setting [2] was determined as 4.6 µM.

With `Cc1ccc(-c2ccc(OCC(=O)NCc3cccc(Cl)c3)c(CN3CCC(N(C)C)CC3)c2)cc1` [NUCC-0201610], the IC50 runs as follows: under setting [1], 2 to 5 µM; under setting [2], 5 µM.

`CN1CCN(Cc2cc(-c3ccc(F)cc3)ccc2OCC(=O)NC2CC2)CC1` [NUCC-0201101]: under setting [2], the IC50 stood at 110 µM.

In the case of `CN1CCN(Cc2cc(-c3ccc(N)cc3)ccc2OCC(=O)Nc2ccc(Cl)c(Cl)c2)CC1` [NUCC-0202020], the half-inhibitory concentration (IC50) runs as follows: under setting [1], 1 to 2 µM; under setting [2], 1.5 µM.

With `Cc1cccc(-c2ccc(OCC(=O)Nc3cc(O)c(O)c(O)c3)c(CN3CC[C@H](N)C3)c2)c1` [NUCC-0201628], the IC50 is 5 to 10 µM under setting [1] and 7.8 µM under setting [2].

`CN1CCN(Cc2cc(-c3ccc(F)c(C(F)(F)F)c3)ccc2OCC(=O)NCc2ccc(Cl)cc2)CC1` [NUCC-0201709]: the IC50 runs as follows: under setting [1], 2 to 5 µM; under setting [2], 2.8 µM.

As for `Cc1ccc(-c2ccc(OCC(=O)NCc3ccc(S(N)(=O)=O)cc3)c(CN3CCCN(C)CC3)c2)cc1` [NUCC-0201597], under setting [2], the IC50 was greater than 40 µM.

Turning to `CN1CCN(Cc2cc(-c3ccncc3)ccc2OCC(=O)Nc2ccc(Cl)c(Cl)c2)CC1` [NUCC-0202006], the IC50 reads like this: under setting [1], 5 to 10 µM; under setting [2], 5.3 µM.

In the case of `Cc1ccc(-c2ccc(OCC(=O)NCc3ccccc3)c(CN3CCCN(C)CC3)c2)cc1` [NUCC-0201598], the IC50 by setting is: under setting [1], 10 to 20 µM; under setting [2], 20 µM.
